Data on 9 compounds can be found in patent US4831151A, “Antimicrobial imidazolium derivatives” (Hoffmann-La Roche Inc., priority 1985, dated 1989).

Data set [1] has as its system Litomosoides carinii. In words: Filaricidal activity in cotton rats infected with Litomosoides carinii. Type of data set: in vivo, Litomosoides carinii in cotton rats (Sigmodon hispidus). The settings on record: s.c., treated 14 weeks after infection, dissected 42 days after treatment; for ED90: Litomosoides carinii, sc, 1008 h, read-out: ED90 (dosage at which 90% of the worms removed from the pleural cavity are dead). As to the method:
(§1) The filaricidal activity of the compounds of formula I can be determined, for example, on cotton rats (Sigmodon hispidus) which have been infected with Litomosoides carinii. The infection with L. carinii is transmitted by the blood-sucking mite Bdellonyssus bacoti in which the development of the microfilaria to infectious larvae takes place. The cotton rats are infected by exposing them to bites of infected mites. 14 weeks after the infection groups of 2-4 animals are treated subcutaneously with the compound to be tested. 42 days after treatment with the compound to be tested the experimental animals are dissected, whereby the adult filaria are removed from the pleural cavity. Living and dead or encapsulated worms are separated from one another and weighed. The filaricidal activity is expressed as the percentage proportion of dead macrofilaria per treatment group. The ED90 is then determined by means of […] analysis using the values from different dosage groups. The ED90 is that dosage at which 90% of the worms removed from the pleural cavity are dead. In the following Table there are compiled the results which have been obtained in the previously described test with representative members of the class of compound defined by general formula I. Moreover, the Table contains data concerning the acute toxicity of some of these compounds in mg per kg in the case of single oral administration to mice.

Data set [2] in a line: Acute toxicity, single oral administration to mice. The settings on record: mouse, in vivo, p.o. As to the method: as §1

Structures are written as SMILES. Where a name gives a salt, the structure may show the parent alone.

In the case of `CCc1n(N=Cc2ccc(N(C)C)cc2)cc[n+]1N=Cc1ccc(N(C)C)cc1.[Cl-]` [1,3-bis[[p-(dimethyl-amino)benzylidene]amino]-2-ethylimidazolium chloride], the ED90 in data set [1] amounted to 0.4 mg/kg. This compound also showed a median lethal dose (LD50) in data set [2] of 62.5 to 125 mg/kg. Take `CCc1n(N=Cc2ccc(N(C)C)cc2)cc[n+]1N=Cc1ccc([N+](=O)[O-])cc1`: the ED90 in data set [1] is < 1 mg/kg.

Regarding `CCc1n(N=Cc2ccc(N(C)C)cc2)cc[n+]1N=Cc1ccc(N(C)C)cc1` [1,3-bis[[(p-dimethylamino)benzylidene]amino]-2-ethylimidazolium acetate], in data set [1], the ED90 turned out to be 0.25 mg/kg. Turning to `CCCCc1n(N=Cc2ccc(N(C)C)cc2)cc[n+]1N=Cc1ccc(N(C)C)cc1.[Cl-]` [2-butyl-1,3-bis[[p-(dimethylamino)benzylidene]amino]imidazolium chloride], in data set [1], the ED90 is < 0.25 mg/kg. Still for that read-out and setting: in the case of `Cc1n(N=Cc2ccc(N(C)C)cc2)cc[n+]1N=Cc1ccc(N(C)C)cc1` [drawing 13, 1,3-bis[[(p-dimethylamino)benzylidene]amino]-2-methylimidazolium acetate] it was 0.85 mg/kg. For the compound `Cc1n(N=Cc2ccc(N(C)C)cc2)cc[n+]1N=Cc1ccc(N(C)C)cc1` [drawing 12, 1,3-bis[[p-(dimethylamino)benzylidene]amino]-2-methylimidazolium salts], the “ED90 (dosage at which 90% of the worms removed from the pleural cavity are dead)” value in data set [1] is 1.6 mg/kg. The LD50 in data set [2] fell in the range of 80 to 156 mg/kg. With `CCCc1n(N=Cc2ccc(N(C)C)cc2)cc[n+]1N=Cc1ccc(N(C)C)cc1.[Cl-]` [1,3-bis[[p-(dimethylamino)benzylidene]amino]-2-propyl-imidazolium chloride], the ED90 in data set [1] is < 0.25 mg/kg. In data set [2], the median lethal dose (LD50) is 62.5 to 125 mg/kg.

With `CCc1n(N=Cc2ccc(N(CC)CC)cc2)cc[n+]1N=Cc1ccc(N(CC)CC)cc1` [1,3-bis[[p-diethylamino)benzylidene]amino]-2-ethyl-imidazolium chloride], in data set [1], the ED90 was found to be 0.75 mg/kg. Consider `CCc1n(N=Cc2ccc(N(C)C)c3ccccc23)cc[n+]1N=Cc1ccc(N(C)C)c2ccccc12.[Cl-]` [1,3-bis[[[4-(dimethylamino)-1-naphthyl]methylidene]amino]-2-ethyl-imidazolium chloride], for which, in data set [1], the ED90 is 3 mg/kg. This compound had an LD50 in data set [2] of 312 to 625 mg/kg.
